Test [1] has as its system constipating effect of morphine. Kind of test: antagonism to the morphine constipating effect, charcoal meal test (A. F. Green, slightly modified). Format: in vivo, mice. The following applies: for Antagonism to the constipating effect ID50c / ED50: charcoal meal, female mice, antagonist s.c. 5 min before morphine 12 mg/kg s.c.; for ED50: Mus musculus, sc, read-out: Antagonism to the constipating effect ID50c. Here is the method:
(§1) The antagonism to the peripheral action of opiates is assessed on the basis of the percent inhibition of the analgesic and of the constipating effects of morphine. The ratio between the dose which inhibits by 50% the analgesic effect of morphine and the dose which inhibits by 50% its constipating effect represents the index of the peripheral activity.
(§2) The antagonism to the morphine constipating effect of the methyl levallorphanium salts of the present invention was assessed according to the test described by A. F. Green (Br. J. Pharm. Chemother. 1959, 14, 26-34), slightly modified.
(§3) Three groups of fasting (20 hours) female mice of about 20 g were used. To a control group, a meal consisting of 0.2 ml of a mixture of 5% arabic gum (6 ml), flour (2 g) and charcoal (1 g) was administered by oral route. The second group was treated with 12 mg/kg of morphine s.c. and, immediately afterwards, with the above charcoal meal. […] After 30 minutes, the animals were sacrificed to assess the portion of intestine through which the charcoal had passed, expressed as percent of the total length of the small intestine.
(§4) The doses which inhibit by 50% the analgesic effect (ID50a) and the constipating effect (ID50c) have been extrapolated from least square log dose-response line by applying the analysis of the variance by linear regression.

Test [2] has as its system analgesic effect of morphine. As to the kind of experiment: antagonism to the analgesic effect of morphine, hot-plate analgesia test (P. A. Janssen et al.). The settings on record: for Antagonism to the analgesic effect ID50a / ED50: female mice, antagonist s.c. 5 min before morphine 24 mg/kg s.c.; for ED50: read-out: Antagonism to the analgesic effect ID50a. Format: in vivo, mice. The procedure:
as §1
(§5) The antagonism to the analgesic effect of morphine was assessed by the hot-plate analgesia test according to P. A. Janssen et al. (J. Pharm. Pharmacol. 1957, 9, 381-400) by using fasting (18 hours) female mice of 20-22 g. Morphine was injected subcutaneously (24 mg/kg) thirty minutes before the beginning of the test. The antagonist was injected subcutaneously 5 minutes before the morphine. The antagonistic activity was expressed as ID50 of the morphine antinociceptive effect, calculated on the basis of the log dose reaction time regression of the animals treated with different doses of the products under testing.
as §4

The test system of test [3] is analgesic and constipating effects of morphine. As to the kind of experiment: index of peripheral activity (hot-plate analgesia test versus charcoal meal constipation test). The following applies: for ID50a/ID50c: index of the peripheral activity; for peripheral selectivity (analgesic versus constipating effect), in words: conditions of Table I. Format: in vivo, mice. Here is the method:
as §1, §5, §2, §3, §4

A further test concerns opiate. The settings on record: reported in earlier literature or filings; cited from earlier work.

SMILES strings stand for the structures. Counter-ions that a name gives are not always drawn.

These results are taken from patent publication US4735947A, “Methyllevallorphanium salts having peripheral opiate antagonistic activity” (Sanofi, priority 1983, dated 1988).

Turning to `C=CC[N+]1(C)CC[C@]23CCCC[C@H]2[C@H]1Cc1ccc(O)cc13` (single isomer, unassigned) [methyllevallorphanium mesilate], the “Antagonism to the constipating effect ID50c” value in test [1] amounted to 7.4 mg/kg. Besides, the “Antagonism to the analgesic effect ID50a” value in test [2] was greater than 60 mg/kg. Further, the ID50a/ID50c in test [3] is given as greater than 8.
As to `C=CC[N+]1(C)CC[C@]23CCCC[C@H]2[C@H]1Cc1ccc(O)cc13` (single isomer, unassigned) [methyllevallorphanium methylsulfate], the ED50 is 4.9 mg/kg in test [1] and roughly 60 mg/kg in test [2] (Mus musculus, sc). Also, the inhibition at 30 mg/kg in test [2] (Mus musculus, sc, at 30 mg/kg s.c., mice, read-out: inhib. of the analgesic effect of morphine) stood at 41%. For the same compound, the inhibition at 60 mg/kg in test [2] (Mus musculus, sc, at 60 mg/kg s.c., mice, read-out: inhib. of the analgesic effect of morphine) was 49%. Further, the ID50a/ID50c in test [3] is listed as ~ 12.
For `C=CC[N+]1(CC=C)CC[C@]23CCCC[C@H]2[C@H]1Cc1ccc(O)cc13` [levallorphan bromoallylate], the ED50 in test [1] is 15.7 mg/kg. The “peripheral opiate antagonism, in words” value in test [1] (conditions of Table I) is on record as “good opiate peripheral antagonist”. Moreover, in the test with opiate, the “peripheral antagonistic activity / opiate antagonistic activity” value is listed as “peripheral narcotic antagonist”. Further, in test [3], the “peripheral selectivity (analgesic versus constipating effect), in words” value (“peripheral selectivity” below) was “the ratio between its ID50a and ID50c is by far lower than that of the compounds of the present invention”; the ID50a/ID50c amounted to 0.97.
Take `C=CCN1CC[C@]23CCCC[C@H]2[C@H]1Cc1ccc(O)cc13` [levallorphan tartrate]: the ED50 was 5.5 mg/kg in test [1] and 0.03 mg/kg in test [2] (Mus musculus, sc). Besides, the “peripheral selectivity” value in test [3] is recorded as “more active as antagonists of the analgesic effect than as antagonists of the constipating effect”. Moreover, in test [3], the ID50a/ID50c was found to be 0.01.
With `C=CC[N+]1(C)CC[C@]23c4c5ccc(O)c4O[C@H]2C(=O)CC[C@@]3(O)[C@H]1C5.COS(=O)(=O)[O-]` (stereo partly drawn) [naloxone sulfomethylate], in test [1], the “Antagonism to the constipating effect ID50c” value amounted to 5.8 mg/kg. The “Antagonism to the analgesic effect ID50a” value in test [2] is listed as 1.6 mg/kg. Besides, in test [3], the ID50a/ID50c stood at 0.27.
As for `C=CCN1CC[C@]23c4c5ccc(O)c4O[C@H]2C(=O)CC[C@@]3(O)[C@H]1C5` [naloxone, N-allylnoroxymorphone], the ED50 in test [1] turned out to be 0.75 mg/kg; in test [2] (Mus musculus, sc), 0.06 mg/kg. The “peripheral selectivity” value in test [3] is “more active as antagonists of the analgesic effect than as antagonists of the constipating effect”. Also, in test [3], the ID50a/ID50c is listed as 0.08.
